From patent US20240209028A1, “CNP COMPOUNDS” (priority 2022, published 2024) come the findings set out here.

The target in data set [1] is T1, human natriuretic peptide receptor 2 (hNPR2) (Homo sapiens, UniProt P20594).
T1 construct: expressed in transfected cells; host or cells: HEK293 (ATCC CRL-1573), clone 35, co-transfected with pGloSensor-42F
T1 sequence (P20594 23-1047): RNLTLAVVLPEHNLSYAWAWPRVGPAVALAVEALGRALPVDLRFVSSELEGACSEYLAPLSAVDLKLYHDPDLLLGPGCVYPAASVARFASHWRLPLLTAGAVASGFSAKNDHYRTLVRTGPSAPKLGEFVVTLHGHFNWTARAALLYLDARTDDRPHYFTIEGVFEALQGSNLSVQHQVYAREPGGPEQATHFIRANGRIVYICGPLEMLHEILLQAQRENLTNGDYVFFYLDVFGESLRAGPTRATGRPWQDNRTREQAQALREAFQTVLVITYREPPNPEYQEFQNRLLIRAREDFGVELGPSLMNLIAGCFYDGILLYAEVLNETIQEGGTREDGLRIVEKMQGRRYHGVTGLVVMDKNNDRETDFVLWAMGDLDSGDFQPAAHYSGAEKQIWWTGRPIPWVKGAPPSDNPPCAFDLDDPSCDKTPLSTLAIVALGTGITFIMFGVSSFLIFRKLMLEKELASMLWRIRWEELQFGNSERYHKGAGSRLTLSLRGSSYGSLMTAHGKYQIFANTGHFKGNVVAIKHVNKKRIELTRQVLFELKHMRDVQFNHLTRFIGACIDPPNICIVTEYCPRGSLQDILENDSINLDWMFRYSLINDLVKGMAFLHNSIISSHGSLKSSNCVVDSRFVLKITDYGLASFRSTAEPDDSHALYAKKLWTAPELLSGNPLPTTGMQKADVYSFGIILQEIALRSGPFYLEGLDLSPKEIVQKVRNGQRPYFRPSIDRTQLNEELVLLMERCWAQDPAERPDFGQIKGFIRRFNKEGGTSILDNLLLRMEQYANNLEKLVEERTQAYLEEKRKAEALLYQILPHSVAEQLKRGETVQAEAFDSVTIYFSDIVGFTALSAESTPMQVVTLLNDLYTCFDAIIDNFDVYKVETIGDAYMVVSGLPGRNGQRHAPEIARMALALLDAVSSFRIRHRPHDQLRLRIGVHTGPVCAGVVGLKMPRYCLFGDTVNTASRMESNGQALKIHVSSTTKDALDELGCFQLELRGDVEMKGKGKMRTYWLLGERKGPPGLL
Description: In vitro hNPR2 activity assay (cGMP GloSensor reporter, HEK293). As to conditions: potency relative to CNP22 (0065). It counts as cell-based. In a few lines:
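Potency is the EC50 from a four-parameter logistic fit, also expressed relative to the in-plate CNP22 control (×100), with at least two replicates. Compounds (ten concentrations, […], HSA-free diluent with 1% OVA, 0.01% Tween20) were incubated 30 min at 37 °C on HEK293 cells co-expressing hNPR2 and a GloSensor cGMP luciferase. Luminescence detected with Bright-Glo.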

Data set [2] in a line: Solubility of CNP compounds at pH 4.0 and pH 6.5. The data set is classed as physicochemical. In a few lines:
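Freeze-dried peptide was brought to a nominal ≥4000-5000 nmol/mL in 5 mM sodium acetate, 250 mM glycerol (pH 4.0) or in 8 mM sodium phosphate, 23 mg/mL glycerol (pH 6.5 via NaOH titration). Samples were equilibrated at room temperature overnight if undissolved, and supernatant concentration was measured by CAD.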

Where [3] appears, read: 5 mM sodium acetate, 250 mM glycerol, pH 4.0, room temperature, read-out: Solubility at pH 4.0.
[4] abbreviates: 8 mM sodium phosphate, 23 mg/mL glycerol, pH 6.5, room temperature, read-out: Solubility at pH 6.5.

For orientation: solubility means how much of the substance goes into solution per volume.

Each structure is given as a SMILES string. Converted amounts (≈) assume the structure as drawn. Where two headings read alike, the source gives them in different places. Starred links: 1 amine or outer side, 2 acyl side, 3 side chain; linkers in the order of their positions; H or OH if unused. Positions of bridges follow the written chain, without caps; N, C: chain ends. Residues, ends and D or L forms follow the SMILES beside them. *: point of attachment. C18 diacid = O=C(O)CCCCCCCCCCCCCCCCC(=O)*; γGlu = O=C(O)[C@H](CCC(=O)[*:2])N[*:1]; X1 = O=C(CCCCCCCCCCCCCCCCc1nnn[nH]1)*; AEEA = NCCOCCOCC(=O)O

For `CC[C@H](C)[C@@H]1NC(=O)[C@H](CCCNC(=N)N)NC(=O)[C@H](CC(=O)O)NC(=O)[C@H](CC(C)C)NC(=O)[C@@H]2CCCN2C(=O)[C@H](CC(C)C)NC(=O)CNC(=O)[C@H](Cc2ccccc2)NC(=O)[C@@H](NC(=O)CNC(=O)[C@H](CCC(N)=O)NC(=O)[C@H](CO)NC(=O)[C@H](CC(C)C)NC(=O)CNC(=O)[C@H](CO)NC(=O)[C@H](CCCCN)NC(=O)[C@H](CCC(N)=O)NC(=O)[C@H](C)NC(=O)CNC(=O)[C@H](Cc2c[nH]cn2)NC(=O)[C@H](Cc2ccc(O)cc2)NC(=O)[C@H](CCCCN)NC(=O)[C@H](CCCNC(=N)N)NC(=O)[C@H](C)NC(=O)COCCOCCNC(=O)COCCOCCNC(=O)CC[C@H](NC(=O)CC[C@H](NC(=O)CCCCCCCCCCCCCCCCc2nnn[nH]2)C(=O)O)C(=O)O)CSSC[C@@H](C(=O)O)NC(=O)CNC(=O)[C@H](CC(C)C)NC(=O)CNC(=O)[C@H](CO)NC(=O)[C@H](CC(C)C)NC(=O)[C@H](CO)NC(=O)CNC1=O` [compound 1426] ({X1-γGlu-γGlu-AEEA-AEEA}-ARKYHGAQKSGLSQGCFGLPLDRIGSLSGLGC-OH; disulfide 16-32), the “hNPR2 0% HSA. [EC50% rel CNP]” value in data set [1] was found to be 76.2%. Besides, the solubility in data set [2] (setting [3]) was 11.2 mM (≈ 46.6 mg/mL).

As for `CC[C@H](C)[C@@H]1NC(=O)[C@H](CCCNC(=N)N)NC(=O)[C@H](CC(=O)O)NC(=O)[C@H](CC(C)C)NC(=O)[C@@H]2CCCN2C(=O)[C@H](CC(C)C)NC(=O)CNC(=O)[C@H](Cc2ccccc2)NC(=O)[C@@H](NC(=O)CNC(=O)[C@H](CCC(N)=O)NC(=O)[C@H](CO)NC(=O)CNC(=O)CNC(=O)[C@H](CCCCN)NC(=O)[C@H](Cc2c[nH]cn2)NC(=O)[C@H](CCC(N)=O)NC(=O)[C@H](C)NC(=O)CNC(=O)[C@H](CCC(=O)O)NC(=O)[C@H](Cc2ccc(O)cc2)NC(=O)[C@H](CCCCN)NC(=O)[C@H](CCCNC(=N)N)NC(=O)[C@H](C)NC(=O)COCCOCCNC(=O)COCCOCCNC(=O)COCCOCCNC(=O)COCCOCCNC(=O)CC[C@H](NC(=O)CC[C@H](NC(=O)CCCCCCCCCCCCCCCCC(=O)O)C(=O)O)C(=O)O)CSSC[C@@H](C(=O)O)NC(=O)CNC(=O)[C@H](CC(C)C)NC(=O)CNC(=O)[C@H](CO)NC(=O)[C@H](CC(C)C)NC(=O)[C@H](CO)NC(=O)CNC1=O` [compound 1432] ({C18 diacid-γGlu-γGlu-AEEA-AEEA-AEEA-AEEA}-ARKYEGAQHKGGSQGCFGLPLDRIGSLSGLGC-OH; disulfide 16-32), in data set [1], the “hNPR2 0% HSA. [EC50% rel CNP]” value worked out at 26.0%. Besides, the solubility in data set [2] (setting [4]) turned out to be 9.83 mM (≈ 43.2 mg/mL).

Turning to `CC[C@H](C)[C@@H]1NC(=O)[C@H](CCCNC(=N)N)NC(=O)[C@H](CC(=O)O)NC(=O)[C@H](CC(C)C)NC(=O)[C@@H]2CCCN2C(=O)[C@H](CC(C)C)NC(=O)CNC(=O)[C@H](Cc2ccccc2)NC(=O)[C@@H](NC(=O)CNC(=O)[C@H](CCC(N)=O)NC(=O)[C@H](CO)NC(=O)CNC(=O)CNC(=O)[C@H](CCCCN)NC(=O)[C@H](CCCCN)NC(=O)[C@H](CCC(N)=O)NC(=O)[C@H](C)NC(=O)CNC(=O)[C@H](Cc2c[nH]cn2)NC(=O)[C@H](Cc2ccc(O)cc2)NC(=O)COCCOCCNC(=O)COCCOCCNC(=O)COCCOCCNC(=O)COCCOCCNC(=O)CC[C@H](NC(=O)CC[C@H](NC(=O)CCCCCCCCCCCCCCCCC(=O)O)C(=O)O)C(=O)O)CSSC[C@@H](C(=O)O)NC(=O)CNC(=O)[C@H](CC(C)C)NC(=O)CNC(=O)[C@H](CO)NC(=O)[C@H](CC(C)C)NC(=O)[C@H](CO)NC(=O)CNC1=O` [compound 1434] ({C18 diacid-γGlu-γGlu-AEEA-AEEA-AEEA-AEEA}-YHGAQKKGGSQGCFGLPLDRIGSLSGLGC-OH; disulfide 13-29), the “hNPR2 0% HSA. [EC50% rel CNP]” value in data set [1] turned out to be 29.0%. The solubility in data set [2] (setting [4]) was 8.51 mM (≈ 34.4 mg/mL).

With `CC[C@H](C)[C@@H]1NC(=O)[C@H](CCCNC(=N)N)NC(=O)[C@H](CC(=O)O)NC(=O)[C@H](CC(C)C)NC(=O)[C@@H]2CCCN2C(=O)[C@H](CC(C)C)NC(=O)CNC(=O)[C@H](Cc2ccccc2)NC(=O)[C@@H](NC(=O)CNC(=O)[C@H](CCC(N)=O)NC(=O)[C@H](CO)NC(=O)[C@H](CC(C)C)NC(=O)CNC(=O)[C@H](CCCCN)NC(=O)[C@H](CCCCN)NC(=O)[C@H](CCC(N)=O)NC(=O)[C@H](C)NC(=O)CNC(=O)[C@H](CCCCN)NC(=O)[C@H](Cc2ccc(O)cc2)NC(=O)[C@H](CCCCN)NC(=O)[C@H](CCCNC(=N)N)NC(=O)[C@H](C)NC(=O)COCCOCCNC(=O)COCCOCCNC(=O)CC[C@H](NC(=O)CC[C@H](NC(=O)CC[C@H](NC(=O)CC[C@H](NC(=O)CC[C@H](NC(=O)CCCCCCCCCCCCCCCCC(=O)O)C(=O)O)C(=O)O)C(=O)O)C(=O)O)C(=O)O)CSSC[C@@H](C(=O)O)NC(=O)CNC(=O)[C@H](CC(C)C)NC(=O)CNC(=O)[C@H](CO)NC(=O)[C@H](CC(C)C)NC(=O)[C@H](CO)NC(=O)CNC1=O` [compound 1453] ({C18 diacid-γGlu-γGlu-γGlu-γGlu-γGlu-AEEA-AEEA}-ARKYKGAQKKGLSQGCFGLPLDRIGSLSGLGC-OH; disulfide 16-32), the “hNPR2 0% HSA. [EC50% rel CNP]” value in data set [1] amounted to 33.5%. For the same compound, the solubility in data set [2] (setting [4]) was 7.88 mM (≈ 35.8 mg/mL).

As for `CC[C@H](C)[C@@H]1NC(=O)[C@H](CCCNC(=N)N)NC(=O)[C@H](CC(=O)O)NC(=O)[C@H](CC(C)C)NC(=O)[C@@H]2CCCN2C(=O)[C@H](CC(C)C)NC(=O)CNC(=O)[C@H](Cc2ccccc2)NC(=O)[C@@H](NC(=O)CNC(=O)[C@H](CCC(N)=O)NC(=O)[C@H](CO)NC(=O)[C@H](CO)NC(=O)CNC(=O)[C@H](CCCCN)NC(=O)[C@H](CCCCN)NC(=O)[C@H](CCC(N)=O)NC(=O)[C@H](C)NC(=O)CNC(=O)[C@@H]2CCCN2C(=O)[C@H](C)NC(=O)[C@H](CCC(N)=O)NC(=O)CNC(=O)[C@@H]2CCCN2C(=O)[C@H](C)NC(=O)[C@H](CCC(N)=O)NC(=O)CNC(=O)[C@@H]2CCCN2C(=O)[C@H](C)NC(=O)[C@H](CCC(N)=O)NC(=O)CNC(=O)COCCOCCNC(=O)COCCOCCNC(=O)CC[C@H](NC(=O)CCCCCCCCCCCCCCCCC(=O)O)C(=O)O)CSSC[C@@H](C(=O)O)NC(=O)CNC(=O)[C@H](CC(C)C)NC(=O)CNC(=O)[C@H](CO)NC(=O)[C@H](CC(C)C)NC(=O)[C@H](CO)NC(=O)CNC1=O` [compound 1457] ({C18 diacid-γGlu-AEEA-AEEA}-GQAPGQAPGQAPGAQKKGSSQGCFGLPLDRIGSLSGLGC-OH; disulfide 23-39), in data set [1], the “hNPR2 0% HSA. [EC50% rel CNP]” value is recorded as 79.4%. Besides, in data set [2] (setting [4]), the solubility is 8.96 mM (≈ 39.5 mg/mL).

As for `CC[C@H](C)[C@@H]1NC(=O)[C@H](CCCNC(=N)N)NC(=O)[C@H](CC(=O)O)NC(=O)[C@H](CC(C)C)NC(=O)[C@@H]2CCCN2C(=O)[C@H](CC(C)C)NC(=O)CNC(=O)[C@H](Cc2ccccc2)NC(=O)[C@@H](NC(=O)CNC(=O)[C@H](CCCCN)NC(=O)[C@H](CO)NC(=O)[C@H](CC(C)C)NC(=O)CNC(=O)[C@H](CCCCN)NC(=O)[C@H](CCCCN)NC(=O)[C@H](CCC(N)=O)NC(=O)[C@H](C)NC(=O)CNC(=O)[C@H](CCCCN)NC(=O)[C@H](Cc2ccc(O)cc2)NC(=O)[C@H](CCCCN)NC(=O)[C@H](CCCNC(=N)N)NC(=O)[C@H](C)NC(=O)COCCOCCNC(=O)COCCOCCNC(=O)CC[C@H](NC(=O)CC[C@H](NC(=O)CC[C@H](NC(=O)CC[C@H](NC(=O)CC[C@H](NC(=O)CCCCCCCCCCCCCCCCC(=O)O)C(=O)O)C(=O)O)C(=O)O)C(=O)O)C(=O)O)CSSC[C@@H](C(=O)O)NC(=O)CNC(=O)[C@H](CC(C)C)NC(=O)CNC(=O)[C@H](CO)NC(=O)[C@H](CC(C)C)NC(=O)[C@H](CO)NC(=O)CNC1=O` [compound 1470] ({C18 diacid-γGlu-γGlu-γGlu-γGlu-γGlu-AEEA-AEEA}-ARKYKGAQKKGLSKGCFGLPLDRIGSLSGLGC-OH; disulfide 16-32), in data set [1], the “hNPR2 0% HSA. [EC50% rel CNP]” value was found to be 23.9%. Further, the solubility in data set [2] (setting [3]) is 6.48 mM (≈ 29.4 mg/mL); in data set [2] (setting [4]), 0.595 mM (≈ 2.7 mg/mL).
